In patent US9988430B2, “Stable GLP-1 based GLP-1/glucagon receptor co-agonists” (Novo Nordisk A/S, priority 2014, dated 2018):
*1 amine or outer side, *2 acyl side, *3 side chain or, on linkers, in order; H or OH if unused. Where a SMILES comes first, the peptide text is derived from it. Bridges are numbered along the chain shown (N, C = ends). Roman numbers before positions name the chains, in order. Side-chain parts run from the residue outwards. [ ]: non-standard residue; d: D form. The star is where a group is joined. C18 diacid = O=C(O)CCCCCCCCCCCCCCCCC(=O)*; γGlu = O=C(O)[C@H](CCC(=O)[*:2])N[*:1]; Desaminohistidyl = O=C(CCc1c[nH]cn1)*; Ac4c = NC1(C(=O)O)CCC1; AEEA = NCCOCCOCC(=O)O; Aib = CC(C)(N)C(=O)O

The compounds below were run against T1, human GLP-1 receptor (Homo sapiens, UniProt P43220) (assay: Assay (I)(a): GLP-1 receptor potency, CRE luciferase reporter gene assay in BHK cells). Conditions: BHK cells expressing human GLP-1 receptor, read-out: EC50 GLP-1R.
T1 construct: expressed in transfected cells; host or cells: membranes of BHK cells, parent line BHKTS13, clone FCW467-12A
Format: cell-based
In short: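 BHK cells (clone FCW467-12A/KZ10-1), 5×10EE3/well, exposed 3 h at 37° C to compound at 1×10EE-13 to 1×10EE-6 M final in medium with 2% ovalbumin and 0.2% Pluronic F-68. Luciferase luminescence read; EC50 (pM) from four-parameter fit.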

T1 sequence (P43220 24-463): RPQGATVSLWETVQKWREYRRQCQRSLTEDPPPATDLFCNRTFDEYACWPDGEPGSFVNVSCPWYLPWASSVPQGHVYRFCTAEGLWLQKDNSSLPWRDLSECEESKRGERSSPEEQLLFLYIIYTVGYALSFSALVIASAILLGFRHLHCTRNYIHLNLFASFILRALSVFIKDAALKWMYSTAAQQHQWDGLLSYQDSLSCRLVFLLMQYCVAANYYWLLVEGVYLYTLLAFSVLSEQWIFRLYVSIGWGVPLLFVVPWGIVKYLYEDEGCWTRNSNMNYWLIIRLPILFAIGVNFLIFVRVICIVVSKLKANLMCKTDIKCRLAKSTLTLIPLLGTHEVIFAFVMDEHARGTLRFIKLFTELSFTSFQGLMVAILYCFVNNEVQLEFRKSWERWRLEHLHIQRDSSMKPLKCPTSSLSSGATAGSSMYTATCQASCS

SMILES | EC50
CC[C@H](C)[C@H](NC(=O)[C@H](Cc1ccccc1)NC(=O)[C@H](CCC(=O)O)NC(=O)[C@H](CCCNC(=N)N)NC(=O)[C@H](C)NC(=O)[C@H](C)NC(=O)[C@H](CCC(N)=O)NC(=O)[C@H](CCC(=O)O)NC(=O)[C@H](CCC(=O)O)NC(=O)[C@H](CC(C)C)NC(=O)[C@H](Cc1ccc(O)cc1)NC(=O)[C@H](CCCCN)NC(=O)[C@H](CO)NC(=O)[C@@H](NC(=O)[C@H](CC(=O)O)NC(=O)[C@H](CO)NC(=O)[C@@H](NC(=O)[C@H](Cc1ccccc1)NC(=O)[C@@H](NC(=O)CNC(=O)[C@H](Cc1c[nH]cn1)NC(=O)C(C)(C)NC(=O)CCc1c[nH]cn1)[C@@H](C)O)[C@@H](C)O)C(C)C)C(=O)N[C@@H](C)C(=O)N[C@@H](Cc1c[nH]c2ccccc12)C(=O)N[C@@H](CC(C)C)C(=O)N[C@@H](CC(C)C)C(=O)N[C@@H](CCCCNC(=O)CNC(=O)[C@H](CO)NC(=O)CC[C@H](NC(=O)CC[C@H](NC(=O)CCCCCCCCCCCCCCCCC(=O)O)C(=O)O)C(=O)O)C(=O)N[C@H](C(N)=O)[C@@H](C)O [Example 4, N^ε34-[2-[[(2S)-2-[[(4S)-4-carboxy-4-[[(4S)-4-carboxy-4-(17-carboxyheptadecanoylamino)butanoyl]amino]butanoyl]amino]-3-hydroxypropanoyl]amino]acetyl]-[Imp7,Aib8,His9,Lys18,Glu22,Arg26,Leu33,Thr35]-GLP-1-(7-35)-peptide amide] (Desaminohistidyl-[Aib]HGTFTSDVSKYLEEQAAREFIAWLLK([Gly-Ser-γGlu-γGlu-C18 diacid])T-NH2) | 7 pM
CC[C@H](C)[C@H](NC(=O)[C@H](Cc1ccccc1)NC(=O)[C@H](CCC(=O)O)NC(=O)[C@H](CCCNC(=N)N)NC(=O)[C@H](C)NC(=O)[C@H](C)NC(=O)[C@H](CCC(N)=O)NC(=O)[C@H](CCC(=O)O)NC(=O)[C@H](CCC(=O)O)NC(=O)[C@H](CC(C)C)NC(=O)[C@H](Cc1ccc(O)cc1)NC(=O)[C@H](CCCCN)NC(=O)[C@H](CO)NC(=O)[C@@H](NC(=O)[C@H](CC(=O)O)NC(=O)[C@H](CO)NC(=O)[C@@H](NC(=O)[C@H](Cc1ccccc1)NC(=O)[C@@H](NC(=O)CNC(=O)[C@H](Cc1c[nH]cn1)NC(=O)C(C)(C)NC(=O)CCc1c[nH]cn1)[C@@H](C)O)[C@@H](C)O)C(C)C)C(=O)N[C@@H](C)C(=O)N[C@@H](Cc1c[nH]c2ccccc12)C(=O)N[C@@H](CC(C)C)C(=O)N[C@@H](CC(C)C)C(=O)N[C@@H](CCCCNC(=O)CC[C@H](NC(=O)CC[C@H](NC(=O)CC[C@H](NC(=O)CC[C@H](NC(=O)CCCCCCCCCCCCCCCCC(=O)O)C(=O)O)C(=O)O)C(=O)O)C(=O)O)C(=O)N[C@H](C(N)=O)[C@@H](C)O [Example 6, N^ε34-[(4S)-4-carboxy-4-[[(4S)-4-carboxy-4-[[(4S)-4-carboxy-4-[[(4S)-4-carboxy-4-(17-carboxyheptadecanoylamino)butanoyl]amino]butanoyl]amino]butanoyl]amino]butanoyl]-[Imp7,Aib8,His9,Lys18,Glu22,Arg26,Leu33,Thr35]-GLP-1-(7-35)-peptide amide] (Desaminohistidyl-[Aib]HGTFTSDVSKYLEEQAAREFIAWLLK([γGlu-γGlu-γGlu-γGlu-C18 diacid])T-NH2) | 7 pM
CC[C@H](C)[C@H](NC(=O)[C@H](Cc1ccccc1)NC(=O)[C@H](CCC(=O)O)NC(=O)[C@H](CCCNC(=N)N)NC(=O)[C@H](C)NC(=O)[C@H](C)NC(=O)[C@H](CCC(N)=O)NC(=O)[C@H](CCC(=O)O)NC(=O)[C@H](CCC(=O)O)NC(=O)[C@H](CC(C)C)NC(=O)[C@H](Cc1ccc(O)cc1)NC(=O)[C@H](CCCNC(=N)N)NC(=O)[C@H](CO)NC(=O)[C@@H](NC(=O)[C@H](CC(=O)O)NC(=O)[C@H](CO)NC(=O)[C@@H](NC(=O)[C@H](Cc1ccccc1)NC(=O)[C@@H](NC(=O)CNC(=O)[C@H](Cc1c[nH]cn1)NC(=O)C(C)(C)NC(=O)CCc1c[nH]cn1)[C@@H](C)O)[C@@H](C)O)C(C)C)C(=O)N[C@@H](C)C(=O)N[C@@H](Cc1c[nH]c2ccccc12)C(=O)N[C@@H](CC(C)C)C(=O)N[C@@H](CC(C)C)C(=O)N[C@@H](CCCCNC(=O)CNC(=O)[C@H](CO)NC(=O)[C@H](CCC(=O)O)NC(=O)CNC(=O)[C@H](CO)NC(=O)CC[C@H](NC(=O)CC[C@H](NC(=O)CCCCCCCCCCCCCCCCC(=O)O)C(=O)O)C(=O)O)C(=O)N[C@H](C(N)=O)[C@@H](C)O [Example 7, N^ε34-[2-[[(2S)-2-[[(2S)-4-carboxy-2-[[2-[[(2S)-2-[[(4S)-4-carboxy-4-[[(4S)-4-carboxy-4-(17-carboxyheptadecanoylamino)butanoyl]amino]butanoyl]amino]-3-hydroxypropanoyl]amino]acetyl]amino]butanoyl]amino]-3-hydroxypropanoyl]amino]acetyl]-[Imp7,Aib8,His9,Arg18,Glu22,Arg26,Leu33,Thr35]-GLP-1-(7-35)-peptide amide] (I: Desaminohistidyl-[Aib]HGTFTSDVSRYLEEQAAREFIAWLLKT-NH2 / II: {C18 diacid-γGlu-γGlu}-SGESG; amide I:27-II:C) | 6 pM
CC[C@H](C)[C@H](NC(=O)[C@H](Cc1ccccc1)NC(=O)[C@H](CCC(=O)O)NC(=O)[C@H](CCCNC(=N)N)NC(=O)[C@H](C)NC(=O)[C@H](C)NC(=O)[C@H](CCCNC(=N)N)NC(=O)CNC(=O)[C@H](CCC(=O)O)NC(=O)[C@H](CC(C)C)NC(=O)[C@H](Cc1ccc(O)cc1)NC(=O)[C@H](CCCCN)NC(=O)[C@H](CO)NC(=O)[C@@H](NC(=O)[C@H](CC(=O)O)NC(=O)[C@H](CO)NC(=O)[C@@H](NC(=O)[C@H](Cc1ccccc1)NC(=O)[C@@H](NC(=O)CNC(=O)[C@H](Cc1c[nH]cn1)NC(=O)[C@H](C)NC(=O)CCc1c[nH]cn1)[C@@H](C)O)[C@@H](C)O)C(C)C)C(=O)N[C@@H](C)C(=O)N[C@@H](Cc1c[nH]c2ccccc12)C(=O)N[C@@H](CC(C)C)C(=O)N[C@@H](CC(C)C)C(=O)N[C@@H](CCCCNC(=O)COCCOCCNC(=O)COCCOCCNC(=O)CC[C@H](NC(=O)CC[C@H](NC(=O)CC[C@H](NC(=O)CCCCCCCCCCCCCCCCC(=O)O)C(=O)O)C(=O)O)C(=O)O)C(=O)N[C@H](C(N)=O)[C@@H](C)O [Example 10, N^ε34-[2-[2-[2-[[2-[2-[2-[[(4S)-4-carboxy-4-[[(4S)-4-carboxy-4-[[(4S)-4-carboxy-4-(17-carboxyheptadecanoylamino)butanoyl]amino]butanoyl]amino]butanoyl]amino]ethoxy]ethoxy]acetyl]amino]ethoxy]ethoxy]acetyl]-[Imp7,His9,Lys18,Arg23,Arg26,Leu33,Thr35]-GLP-1-(7-35)-peptide amide] (Desaminohistidyl-AHGTFTSDVSKYLEGRAAREFIAWLLK([AEEA-AEEA-γGlu-γGlu-γGlu-C18 diacid])T-NH2) | 8 pM

Further lines, results first:

EC50 | SMILES
5 pM | CC[C@H](C)[C@H](NC(=O)[C@H](Cc1ccccc1)NC(=O)[C@H](CCC(=O)O)NC(=O)[C@H](CCCNC(=N)N)NC(=O)[C@H](C)NC(=O)[C@H](C)NC(=O)[C@H](CCC(N)=O)NC(=O)[C@H](CCC(=O)O)NC(=O)[C@H](CCC(=O)O)NC(=O)[C@H](CC(C)C)NC(=O)[C@H](Cc1ccc(O)cc1)NC(=O)[C@H](CCCCN)NC(=O)[C@H](CO)NC(=O)[C@@H](NC(=O)[C@H](CC(=O)O)NC(=O)[C@H](CO)NC(=O)[C@@H](NC(=O)[C@H](Cc1ccccc1)NC(=O)[C@@H](NC(=O)CNC(=O)[C@H](Cc1c[nH]cn1)NC(=O)C(C)(C)NC(=O)CCc1c[nH]cn1)[C@@H](C)O)[C@@H](C)O)C(C)C)C(=O)N[C@@H](C)C(=O)N[C@@H](Cc1c[nH]c2ccccc12)C(=O)N[C@@H](CC(C)C)C(=O)N[C@@H](CC(C)C)C(=O)N[C@@H](CCCCNC(=O)CNC(=O)[C@H](CO)NC(=O)[C@H](CCC(=O)O)NC(=O)CNC(=O)[C@H](CO)NC(=O)CC[C@H](NC(=O)CC[C@H](NC(=O)CCCCCCCCCCCCCCCCC(=O)O)C(=O)O)C(=O)O)C(=O)N[C@H](C(N)=O)[C@@H](C)O [Example 3, N^ε34-[2-[[(2S)-2-[[(2S)-4-carboxy-2-[[2-[[(2S)-2-[[(4S)-4-carboxy-4-[[(4S)-4-carboxy-4-(17-carboxyheptadecanoylamino)butanoyl]amino]butanoyl]amino]-3-hydroxypropanoyl]amino]acetyl]amino]butanoyl]amino]-3-hydroxypropanoyl]amino]acetyl]-[Imp7,Aib8,His9,Lys18,Glu22,Arg26,Leu33,Thr35]-GLP-1-(7-35)-peptide amide] (I: Desaminohistidyl-[Aib]HGTFTSDVSKYLEEQAAREFIAWLLKT-NH2 / II: {C18 diacid-γGlu-γGlu}-SGESG; amide I:27-II:C)
5 pM | CC[C@H](C)[C@H](NC(=O)[C@H](Cc1ccccc1)NC(=O)[C@H](CCC(=O)O)NC(=O)[C@H](CCCNC(=N)N)NC(=O)[C@H](C)NC(=O)[C@H](C)NC(=O)[C@H](CCC(N)=O)NC(=O)[C@H](CCC(=O)O)NC(=O)[C@H](CCC(=O)O)NC(=O)[C@H](CC(C)C)NC(=O)[C@H](Cc1ccc(O)cc1)NC(=O)[C@H](CCCCN)NC(=O)[C@H](CO)NC(=O)[C@@H](NC(=O)[C@H](CC(=O)O)NC(=O)[C@H](CO)NC(=O)[C@@H](NC(=O)[C@H](Cc1ccccc1)NC(=O)[C@@H](NC(=O)CNC(=O)[C@H](Cc1c[nH]cn1)NC(=O)C1(NC(=O)CCc2c[nH]cn2)CCC1)[C@@H](C)O)[C@@H](C)O)C(C)C)C(=O)N[C@@H](C)C(=O)N[C@@H](Cc1c[nH]c2ccccc12)C(=O)N[C@@H](CC(C)C)C(=O)N[C@@H](CC(C)C)C(=O)N[C@@H](CCCCNC(=O)CNC(=O)[C@H](CO)NC(=O)[C@H](CCC(=O)O)NC(=O)CNC(=O)[C@H](CO)NC(=O)CC[C@H](NC(=O)CC[C@H](NC(=O)CCCCCCCCCCCCCCCCC(=O)O)C(=O)O)C(=O)O)C(=O)N[C@H](C(N)=O)[C@@H](C)O [Example 9, N^ε34-[2-[[(2S)-2-[[(2S)-4-carboxy-2-[[2-[[(2S)-2-[[(4S)-4-carboxy-4-[[(4S)-4-carboxy-4-(17-carboxyheptadecanoylamino)butanoyl]amino]butanoyl]amino]-3-hydroxypropanoyl]amino]acetyl]amino]butanoyl]amino]-3-hydroxypropanoyl]amino]acetyl]-[Imp7,Acb8,His9,Lys18,Glu22,Arg26,Leu33,Thr35]-GLP-1-(7-35)-peptide amide] (I: Desaminohistidyl-[Ac4c]HGTFTSDVSKYLEEQAAREFIAWLLKT-NH2 / II: {C18 diacid-γGlu-γGlu}-SGESG; amide I:27-II:C)
